pEC50: −log10 of the molar value.
What follows are compounds tested against T1, ERR1 (also known as ERR-α or ERR-1) (Homo sapiens, UniProt P11474) (assay: TR-FRET assay: disruption of co-activator peptide binding to ERR1 LBD). Conditions: 6His-tagged ERR1 LBD 6 nM, GST-SRC-2 peptide 6 nM, 25° C., 4-18 hours; average of 3 independent experiments.
T1 construct: the ^6His-tagged-ERR1 LBD
T1 sequence (P11474 193-421 limits assumed): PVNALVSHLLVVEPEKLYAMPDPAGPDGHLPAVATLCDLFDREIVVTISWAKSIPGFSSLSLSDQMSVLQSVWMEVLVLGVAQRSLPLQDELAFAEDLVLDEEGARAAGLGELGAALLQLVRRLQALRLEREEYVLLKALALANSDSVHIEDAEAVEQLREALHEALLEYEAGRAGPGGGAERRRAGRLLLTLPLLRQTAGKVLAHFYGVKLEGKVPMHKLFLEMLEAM
Format: biochemical
Outline: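 The 6His-ERR1 LBD and a GST-hSRC2 co-activator peptide were detected by α-GST Eu cryptate and α-6His-XL665 TR-FRET. Buffer was 25 mM Tris pH 8, 2.5 mM Hepes, 20 mM KCl, 1 mM DTT, 0.05 mg/mL BSA, equilibrated 4-18 h at 25° C. Dose-response curves were fitted hyperbolically and averaged over 3 independent experiments.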

SMILES	pEC50
COc1cc(/C=C2\SC(NC3CCN(CCO)CC3)=NC2=O)ccc1Oc1ccc(C#N)cc1C(F)(F)F [Example 111, 4-(4-{2-[1-(2-Hydroxy-ethyl)-piperidin-4-ylamino]-4-oxo-4H-thiazol-5-ylidenemethyl}-2-methoxy-phenoxy)-3-trifluoromethyl-benzonitrile]	7.82
N#Cc1ccc(Oc2ccc(/C=C3\SC(NC4CCN(CCO)CC4)=NC3=O)cc2F)c(C(F)(F)F)c1 [Example 112, 4-(2-Fluoro-4-{2-[1-(2-hydroxy-ethyl)-piperidin-4-ylamino]-4-oxo-4H-thiazol-5-ylidenemethyl}-phenoxy)-3-trifluoromethyl-benzonitrile]	7.59
COC(=O)c1ccc(Oc2ccc(/C=C3\SC(N4CCC(C(=O)OC)CC4)=NC3=O)cc2OC)c(C(F)(F)F)c1 [Example 113, 1-{5-[3-Methoxy-4-(4-methoxycarbonyl-2-trifluoromethyl-phenoxy)-benzylidene]-4-oxo-4,5-dihydro-thiazol-2-yl}-piperidine-4-carboxylic acid methyl ester]	7.85
COc1cc(/C=C2\SC(N3CCCC(O)C3)=NC2=O)ccc1Oc1ccc(C(N)=O)cc1C(F)(F)F (stereo not drawn) [Example 114, 4-{4-[2-(3-Hydroxy-piperidin-1-yl)-4-oxo-4H-thiazol-5-ylidenemethyl]-2-methoxy-phenoxy}-3-trifluoromethyl-benzamide]	6.52
COc1cc(/C=C2\SC(N3CCNC(=O)C3)=NC2=O)ccc1Oc1ccc(C(N)=O)cc1C(F)(F)F [Example 115, 4-{2-Methoxy-4-[4-oxo-2-(3-oxo-piperazin-1-yl)-4H-thiazol-5-ylidenemethyl]-phenoxy}-3-trifluoromethyl-benzamide]	7.05
N#Cc1ccc(Oc2ccc(/C=C3\SC(N4CC(C(=O)O)C4)=NC3=O)cc2F)c(C(F)(F)F)c1 [Example 116, 1-{5-[4-(4-Cyano-2-trifluoromethyl-phenoxy)-3-fluoro-benzylidene]-4-oxo-4,5-dihydro-thiazol-2-yl}-azetidine-3-carboxylic acid]	7.47
COc1cc(/C=C2\SC(N(CCO)CCO)=NC2=O)ccc1Oc1ccc(C(F)(F)F)cc1C(F)(F)F [Example 117, 2-[Bis-(2-hydroxy-ethyl)-amino]-5-[4-(2,4-bis-trifluoromethyl-phenoxy)-3-methoxy-benzylidene]-thiazol-4-one]	7.40
CC(C)c1ccccc1Oc1ccc(/C=C2\SC(N3CC(C(=O)O)C3)=NC2=O)cc1 [Example 118, 1-{5-[4-(2-Isopropyl-phenoxy)-benzylidene]-4-oxo-4,5-dihydro-thiazol-2-yl}-azetidine-3-carboxylic acid]	7.68
COc1cc(/C=C2\SC(N3CC(C(=O)O)C3)=NC2=O)ccc1Oc1ccccc1C(F)(F)F [Example 119, 1-{5-[3-Methoxy-4-(2-trifluoromethyl-phenoxy)-benzylidene]-4-oxo-4,5-dihydro-thiazol-2-yl}-azetidine-3-carboxylic acid]	8.00
